According to ChEMBL document CHEMBL1128115, “Synthesis and pharmacological activity of combretastatin analogues. Naphthylcombretastatins and related compounds” (Bioorg Med Chem Lett, 1995):

System: L1210
Assay: Compound was tested for inhibition of cell growth of L1210 leukemia cells
Format: functional, cell-based
Settings: Mus musculus

IC50	SMILES
20 µM	c1ccc2cc(C3SCCCS3)ccc2c1

System: P388
Assay: Compound was tested for inhibition of cell growth of P-388 cells
Format: functional, cell-based
Settings: Mus musculus

IC50	SMILES
> 28.9 µM	COc1ccc(C(=O)Cc2cc(OC)c(OC)c(OC)c2)cc1OC
6.3 µM	COc1cc(CCc2ccc3c(c2)OCO3)cc(OC)c1OC
15 µM	COc1ccc(CCc2cc(OC)c(OC)c(OC)c2)cc1OC
5.9 µM	COc1cc(CC2(c3ccc4c(c3)OCO4)SCCCS2)cc(OC)c1OC
41.2 µM	Oc1ccc(CCc2ccc3c(c2)OCO3)cc1
30 µM	COc1cc(C(=O)Cc2cc(OC)c(OC)c(OC)c2)ccc1O
5.8 µM	COc1cc(CC2(c3ccc4ccccc4c3)SCCCS2)cc(OC)c1OC
28.7 µM	COc1ccc(C(O)Cc2cc(OC)c(OC)c(OC)c2)cc1OC (centres undefined)
14.8 µM	COc1cc(CC(=O)c2ccc3ccccc3c2)cc(OC)c1OC
22.9 µM	COc1ccc(C2(Cc3cc(OC)c(OC)c(OC)c3)SCCCS2)cc1OC
0.3 µM	COc1cc(CCc2ccc3ccccc3c2)cc(OC)c1OC

SMILES	IC50
COc1cc([C@@H]2c3cc4c(cc3[C@H](O)[C@H]3COC(=O)[C@H]23)OCO4)cc(OC)c1OC [PODOFILOX]	0.05 µM

System: A549
Assay: Compound was tested for inhibition of cell growth of A-549 cells
Format: functional, cell-based
Settings: Homo sapiens

IC50	SMILES
> 28.9 µM	COc1ccc(C(=O)Cc2cc(OC)c(OC)c(OC)c2)cc1OC
6.3 µM	COc1cc(CCc2ccc3c(c2)OCO3)cc(OC)c1OC
15 µM	COc1ccc(CCc2cc(OC)c(OC)c(OC)c2)cc1OC
5.9 µM	COc1cc(CC2(c3ccc4c(c3)OCO4)SCCCS2)cc(OC)c1OC
> 41.2 µM	Oc1ccc(CCc2ccc3c(c2)OCO3)cc1
> 30 µM	COc1cc(C(=O)Cc2cc(OC)c(OC)c(OC)c2)ccc1O
5.8 µM	COc1cc(CC2(c3ccc4ccccc4c3)SCCCS2)cc(OC)c1OC
> 28.7 µM	COc1ccc(C(O)Cc2cc(OC)c(OC)c(OC)c2)cc1OC (centres undefined)
14.8 µM	COc1cc(CC(=O)c2ccc3ccccc3c2)cc(OC)c1OC
22.9 µM	COc1ccc(C2(Cc3cc(OC)c(OC)c(OC)c3)SCCCS2)cc1OC
0.3 µM	COc1cc(CCc2ccc3ccccc3c2)cc(OC)c1OC

SMILES	IC50
COc1cc([C@@H]2c3cc4c(cc3[C@H](O)[C@H]3COC(=O)[C@H]23)OCO4)cc(OC)c1OC [PODOFILOX]	0.05 µM

System: HT-29
Assay: Compound was tested for inhibition of cell growth of HT-29 cells
Format: functional, cell-based
Settings: Homo sapiens

IC50	SMILES
> 28.9 µM	COc1ccc(C(=O)Cc2cc(OC)c(OC)c(OC)c2)cc1OC
6.3 µM	COc1cc(CCc2ccc3c(c2)OCO3)cc(OC)c1OC
15 µM	COc1ccc(CCc2cc(OC)c(OC)c(OC)c2)cc1OC
5.9 µM	COc1cc(CC2(c3ccc4c(c3)OCO4)SCCCS2)cc(OC)c1OC
> 41.2 µM	Oc1ccc(CCc2ccc3c(c2)OCO3)cc1
> 30 µM	COc1cc(C(=O)Cc2cc(OC)c(OC)c(OC)c2)ccc1O
5.8 µM	COc1cc(CC2(c3ccc4ccccc4c3)SCCCS2)cc(OC)c1OC
> 28.7 µM	COc1ccc(C(O)Cc2cc(OC)c(OC)c(OC)c2)cc1OC (centres undefined)
29.7 µM	COc1cc(CC(=O)c2ccc3ccccc3c2)cc(OC)c1OC
22.9 µM	COc1ccc(C2(Cc3cc(OC)c(OC)c(OC)c3)SCCCS2)cc1OC
0.3 µM	COc1cc(CCc2ccc3ccccc3c2)cc(OC)c1OC

SMILES	IC50
COc1cc([C@@H]2c3cc4c(cc3[C@H](O)[C@H]3COC(=O)[C@H]23)OCO4)cc(OC)c1OC [PODOFILOX]	0.05 µM

System: not listed separately
Assay: Compound was tested for inhibition of cell growth of MEL-28 cells
Format: functional, cell-based
Settings: Homo sapiens, SK-MEL-28

SMILES	IC50
COc1ccc(C(=O)Cc2cc(OC)c(OC)c(OC)c2)cc1OC	> 28.9 µM
COc1cc(CCc2ccc3c(c2)OCO3)cc(OC)c1OC	6.3 µM
COc1ccc(CCc2cc(OC)c(OC)c(OC)c2)cc1OC	15 µM
COc1cc(CC2(c3ccc4c(c3)OCO4)SCCCS2)cc(OC)c1OC	4.7 µM
Oc1ccc(CCc2ccc3c(c2)OCO3)cc1	> 41.2 µM
COc1cc(C(=O)Cc2cc(OC)c(OC)c(OC)c2)ccc1O	> 30 µM
COc1cc(CC2(c3ccc4ccccc4c3)SCCCS2)cc(OC)c1OC	11.7 µM
COc1ccc(C(O)Cc2cc(OC)c(OC)c(OC)c2)cc1OC (centres undefined)	> 28.7 µM
COc1cc(CC(=O)c2ccc3ccccc3c2)cc(OC)c1OC	14.8 µM
COc1ccc(C2(Cc3cc(OC)c(OC)c(OC)c3)SCCCS2)cc1OC	> 22.9 µM
COc1cc(CCc2ccc3ccccc3c2)cc(OC)c1OC	0.3 µM
COc1cc([C@@H]2c3cc4c(cc3[C@H](O)[C@H]3COC(=O)[C@H]23)OCO4)cc(OC)c1OC [PODOFILOX]	0.06 µM
